Data reported in ChEMBL document CHEMBL5291721, “A preclinical secondary pharmacology resource illuminates target-adverse drug reaction associations of marketed drugs” (Nat Commun, 2023).

Legend:
[1] = target: Sodium-dependent noradrenaline transporter (Homo sapiens, UniProt P23975)
[2] = target: T1, Alpha-2A adrenergic receptor (Homo sapiens, UniProt P08913); assay type: functional, cell-based
T1 sequence (P08913 whole entry): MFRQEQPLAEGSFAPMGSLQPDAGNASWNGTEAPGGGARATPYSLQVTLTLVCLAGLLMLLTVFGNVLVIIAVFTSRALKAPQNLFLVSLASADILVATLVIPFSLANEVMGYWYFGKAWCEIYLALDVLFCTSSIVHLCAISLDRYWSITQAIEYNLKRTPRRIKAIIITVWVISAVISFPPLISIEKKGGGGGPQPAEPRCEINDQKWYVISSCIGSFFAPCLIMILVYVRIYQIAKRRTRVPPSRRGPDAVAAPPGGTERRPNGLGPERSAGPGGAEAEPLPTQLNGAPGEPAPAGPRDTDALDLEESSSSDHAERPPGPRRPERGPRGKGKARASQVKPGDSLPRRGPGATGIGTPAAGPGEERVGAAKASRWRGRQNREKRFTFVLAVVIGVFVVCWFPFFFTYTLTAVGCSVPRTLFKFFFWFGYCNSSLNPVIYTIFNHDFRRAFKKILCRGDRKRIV

[3] = target: Gamma-aminobutyric acid receptor subunit alpha-1 (Rattus norvegicus, UniProt P62813); assay type: functional
D(1A) dopamine receptor = D(1A) dopamine receptor (Homo sapiens, UniProt P21728); assay type: functional, cell-based
[4] = target: T2, Muscarinic acetylcholine receptor M2 (Homo sapiens, UniProt P08172); assay type: functional, cell-based
T2 sequence (P08172 whole entry): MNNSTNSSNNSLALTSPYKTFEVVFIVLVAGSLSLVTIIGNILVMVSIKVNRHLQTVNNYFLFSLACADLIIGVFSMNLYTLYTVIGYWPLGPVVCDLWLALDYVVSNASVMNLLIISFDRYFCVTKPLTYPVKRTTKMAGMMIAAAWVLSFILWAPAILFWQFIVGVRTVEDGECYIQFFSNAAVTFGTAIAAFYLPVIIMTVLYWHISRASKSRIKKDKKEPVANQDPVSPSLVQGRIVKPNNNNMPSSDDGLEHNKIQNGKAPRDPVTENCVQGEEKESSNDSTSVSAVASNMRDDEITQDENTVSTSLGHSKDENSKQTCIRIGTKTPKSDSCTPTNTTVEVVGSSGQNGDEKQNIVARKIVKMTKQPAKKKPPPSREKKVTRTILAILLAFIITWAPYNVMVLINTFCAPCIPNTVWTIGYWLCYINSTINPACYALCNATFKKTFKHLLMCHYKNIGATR

[5] = target: 3',5'-cyclic-AMP phosphodiesterase 4D (Homo sapiens, UniProt Q08499); assay type: functional
[6] = target: T3, 5-hydroxytryptamine receptor 2C (Homo sapiens, UniProt P28335)
T3 sequence (P28335 whole entry): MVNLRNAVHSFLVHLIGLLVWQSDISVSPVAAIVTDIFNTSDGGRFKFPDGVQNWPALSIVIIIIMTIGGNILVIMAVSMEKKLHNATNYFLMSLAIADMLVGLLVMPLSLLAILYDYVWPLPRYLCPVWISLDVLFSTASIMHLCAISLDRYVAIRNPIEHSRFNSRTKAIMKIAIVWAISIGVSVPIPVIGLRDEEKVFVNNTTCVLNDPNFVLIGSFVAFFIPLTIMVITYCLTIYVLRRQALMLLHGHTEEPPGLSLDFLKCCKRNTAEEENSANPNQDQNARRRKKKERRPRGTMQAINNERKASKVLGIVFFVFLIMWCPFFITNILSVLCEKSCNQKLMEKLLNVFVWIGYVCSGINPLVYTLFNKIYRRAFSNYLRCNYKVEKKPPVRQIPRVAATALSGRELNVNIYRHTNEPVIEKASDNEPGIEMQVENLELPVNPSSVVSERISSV

[7] = target: T4, 5-hydroxytryptamine receptor 1A (Homo sapiens, UniProt P08908); assay type: functional, cell-based
T4 sequence (P08908 whole entry): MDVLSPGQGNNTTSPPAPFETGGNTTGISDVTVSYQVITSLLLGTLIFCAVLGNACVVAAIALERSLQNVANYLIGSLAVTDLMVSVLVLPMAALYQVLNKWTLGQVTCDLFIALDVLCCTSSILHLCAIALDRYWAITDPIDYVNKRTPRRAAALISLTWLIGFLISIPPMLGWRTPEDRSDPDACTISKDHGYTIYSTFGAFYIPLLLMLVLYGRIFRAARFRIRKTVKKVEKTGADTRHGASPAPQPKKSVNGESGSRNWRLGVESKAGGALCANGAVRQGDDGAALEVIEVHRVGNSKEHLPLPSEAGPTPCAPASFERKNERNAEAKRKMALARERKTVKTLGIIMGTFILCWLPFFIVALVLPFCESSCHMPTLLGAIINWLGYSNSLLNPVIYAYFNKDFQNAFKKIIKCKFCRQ

[8] = target: Voltage-gated inwardly rectifying potassium channel KCNH2 (Homo sapiens, UniProt Q12809); assay type: functional; conditions: read-out: AC50
[9] = target: Growth hormone secretagogue receptor type 1 (Homo sapiens, UniProt Q92847)
[10] = target: T5, Amine oxidase [flavin-containing] A (Homo sapiens, UniProt P21397); assay type: functional
T5 sequence (P21397 whole entry): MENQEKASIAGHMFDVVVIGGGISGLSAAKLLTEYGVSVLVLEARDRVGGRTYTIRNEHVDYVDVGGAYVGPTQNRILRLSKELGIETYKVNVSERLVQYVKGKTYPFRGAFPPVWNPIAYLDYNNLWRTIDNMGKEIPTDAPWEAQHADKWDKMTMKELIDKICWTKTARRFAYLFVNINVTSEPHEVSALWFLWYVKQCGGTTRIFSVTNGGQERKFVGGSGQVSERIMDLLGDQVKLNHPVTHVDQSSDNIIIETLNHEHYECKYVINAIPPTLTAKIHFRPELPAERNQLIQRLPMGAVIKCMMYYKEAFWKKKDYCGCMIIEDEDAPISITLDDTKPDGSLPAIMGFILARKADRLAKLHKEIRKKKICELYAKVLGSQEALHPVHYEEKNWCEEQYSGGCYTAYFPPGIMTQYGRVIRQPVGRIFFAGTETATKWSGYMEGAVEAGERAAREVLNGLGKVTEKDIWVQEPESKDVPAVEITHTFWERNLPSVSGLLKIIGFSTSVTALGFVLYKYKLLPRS
Further: assay procedure not described here.

Gamma-aminobutyric acid receptor subunit alpha-1, sequence (P62813 whole entry): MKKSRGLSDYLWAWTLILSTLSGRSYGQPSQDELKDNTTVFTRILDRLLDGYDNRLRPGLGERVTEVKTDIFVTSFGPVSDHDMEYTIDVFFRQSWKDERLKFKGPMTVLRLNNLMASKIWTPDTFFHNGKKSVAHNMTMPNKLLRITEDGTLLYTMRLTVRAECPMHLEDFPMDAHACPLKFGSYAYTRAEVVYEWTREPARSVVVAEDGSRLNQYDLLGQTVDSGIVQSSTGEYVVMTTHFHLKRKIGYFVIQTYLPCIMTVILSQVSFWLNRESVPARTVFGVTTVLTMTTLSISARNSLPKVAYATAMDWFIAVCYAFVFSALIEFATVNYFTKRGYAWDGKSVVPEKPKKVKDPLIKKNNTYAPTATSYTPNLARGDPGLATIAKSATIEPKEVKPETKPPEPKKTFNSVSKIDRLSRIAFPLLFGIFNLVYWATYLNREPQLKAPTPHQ
Sodium-dependent noradrenaline transporter, sequence (P23975 whole entry): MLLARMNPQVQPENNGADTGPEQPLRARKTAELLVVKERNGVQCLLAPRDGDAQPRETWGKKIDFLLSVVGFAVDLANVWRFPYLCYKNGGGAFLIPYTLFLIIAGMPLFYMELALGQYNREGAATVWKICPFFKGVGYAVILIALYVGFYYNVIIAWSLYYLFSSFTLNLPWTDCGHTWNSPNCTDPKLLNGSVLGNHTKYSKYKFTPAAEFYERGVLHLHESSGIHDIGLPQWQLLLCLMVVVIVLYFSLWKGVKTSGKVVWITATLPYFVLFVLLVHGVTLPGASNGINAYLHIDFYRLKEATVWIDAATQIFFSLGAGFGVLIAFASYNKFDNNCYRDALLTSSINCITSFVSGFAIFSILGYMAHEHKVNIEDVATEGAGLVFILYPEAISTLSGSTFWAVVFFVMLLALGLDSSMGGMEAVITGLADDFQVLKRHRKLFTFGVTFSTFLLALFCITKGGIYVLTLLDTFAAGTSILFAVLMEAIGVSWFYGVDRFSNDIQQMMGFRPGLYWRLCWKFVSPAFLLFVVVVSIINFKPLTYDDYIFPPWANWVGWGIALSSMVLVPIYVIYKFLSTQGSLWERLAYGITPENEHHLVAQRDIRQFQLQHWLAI
D(1A) dopamine receptor, sequence (P21728 whole entry): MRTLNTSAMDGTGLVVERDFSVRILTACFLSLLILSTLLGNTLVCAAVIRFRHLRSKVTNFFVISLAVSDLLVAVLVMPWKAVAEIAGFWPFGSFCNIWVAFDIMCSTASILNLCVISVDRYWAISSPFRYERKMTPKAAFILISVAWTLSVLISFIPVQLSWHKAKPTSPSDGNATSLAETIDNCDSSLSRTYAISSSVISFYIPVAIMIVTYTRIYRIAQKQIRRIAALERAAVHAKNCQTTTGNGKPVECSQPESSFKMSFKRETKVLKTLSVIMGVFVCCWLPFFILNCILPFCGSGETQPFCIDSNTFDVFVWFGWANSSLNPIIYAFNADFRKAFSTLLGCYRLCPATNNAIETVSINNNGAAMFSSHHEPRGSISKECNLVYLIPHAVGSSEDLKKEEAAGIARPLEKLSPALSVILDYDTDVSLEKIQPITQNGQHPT
3',5'-cyclic-AMP phosphodiesterase 4D, sequence (Q08499 whole entry): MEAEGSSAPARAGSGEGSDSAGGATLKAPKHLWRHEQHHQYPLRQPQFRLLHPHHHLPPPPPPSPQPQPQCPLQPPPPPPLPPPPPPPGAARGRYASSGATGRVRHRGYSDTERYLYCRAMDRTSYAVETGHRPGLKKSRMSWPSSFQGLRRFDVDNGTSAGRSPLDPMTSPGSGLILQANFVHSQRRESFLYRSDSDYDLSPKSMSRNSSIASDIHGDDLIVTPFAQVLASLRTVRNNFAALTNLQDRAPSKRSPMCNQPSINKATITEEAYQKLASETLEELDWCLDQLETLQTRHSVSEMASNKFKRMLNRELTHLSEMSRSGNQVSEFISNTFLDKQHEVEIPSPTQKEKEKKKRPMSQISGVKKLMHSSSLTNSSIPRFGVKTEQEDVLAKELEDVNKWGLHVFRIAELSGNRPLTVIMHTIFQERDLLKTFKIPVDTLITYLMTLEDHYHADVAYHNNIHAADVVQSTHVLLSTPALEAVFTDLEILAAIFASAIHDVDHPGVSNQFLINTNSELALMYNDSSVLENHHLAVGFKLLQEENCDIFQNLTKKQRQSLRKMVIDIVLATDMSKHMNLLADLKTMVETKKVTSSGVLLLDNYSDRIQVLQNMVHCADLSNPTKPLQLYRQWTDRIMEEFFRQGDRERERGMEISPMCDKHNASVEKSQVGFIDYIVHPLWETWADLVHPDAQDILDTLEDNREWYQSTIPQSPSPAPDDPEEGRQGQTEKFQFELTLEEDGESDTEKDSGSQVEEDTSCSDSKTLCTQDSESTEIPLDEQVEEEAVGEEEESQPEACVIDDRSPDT
Growth hormone secretagogue receptor type 1, sequence (Q92847 whole entry): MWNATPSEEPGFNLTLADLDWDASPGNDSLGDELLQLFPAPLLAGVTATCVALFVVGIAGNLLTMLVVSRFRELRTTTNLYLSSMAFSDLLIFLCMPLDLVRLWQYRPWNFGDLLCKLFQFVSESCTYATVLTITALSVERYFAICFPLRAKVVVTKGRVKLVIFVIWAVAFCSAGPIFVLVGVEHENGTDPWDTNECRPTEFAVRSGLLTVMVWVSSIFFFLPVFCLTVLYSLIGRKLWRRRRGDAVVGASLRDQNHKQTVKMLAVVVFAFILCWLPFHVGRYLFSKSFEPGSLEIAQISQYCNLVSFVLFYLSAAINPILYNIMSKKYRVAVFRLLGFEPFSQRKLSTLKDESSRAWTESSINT
Voltage-gated inwardly rectifying potassium channel KCNH2, sequence (Q12809 whole entry): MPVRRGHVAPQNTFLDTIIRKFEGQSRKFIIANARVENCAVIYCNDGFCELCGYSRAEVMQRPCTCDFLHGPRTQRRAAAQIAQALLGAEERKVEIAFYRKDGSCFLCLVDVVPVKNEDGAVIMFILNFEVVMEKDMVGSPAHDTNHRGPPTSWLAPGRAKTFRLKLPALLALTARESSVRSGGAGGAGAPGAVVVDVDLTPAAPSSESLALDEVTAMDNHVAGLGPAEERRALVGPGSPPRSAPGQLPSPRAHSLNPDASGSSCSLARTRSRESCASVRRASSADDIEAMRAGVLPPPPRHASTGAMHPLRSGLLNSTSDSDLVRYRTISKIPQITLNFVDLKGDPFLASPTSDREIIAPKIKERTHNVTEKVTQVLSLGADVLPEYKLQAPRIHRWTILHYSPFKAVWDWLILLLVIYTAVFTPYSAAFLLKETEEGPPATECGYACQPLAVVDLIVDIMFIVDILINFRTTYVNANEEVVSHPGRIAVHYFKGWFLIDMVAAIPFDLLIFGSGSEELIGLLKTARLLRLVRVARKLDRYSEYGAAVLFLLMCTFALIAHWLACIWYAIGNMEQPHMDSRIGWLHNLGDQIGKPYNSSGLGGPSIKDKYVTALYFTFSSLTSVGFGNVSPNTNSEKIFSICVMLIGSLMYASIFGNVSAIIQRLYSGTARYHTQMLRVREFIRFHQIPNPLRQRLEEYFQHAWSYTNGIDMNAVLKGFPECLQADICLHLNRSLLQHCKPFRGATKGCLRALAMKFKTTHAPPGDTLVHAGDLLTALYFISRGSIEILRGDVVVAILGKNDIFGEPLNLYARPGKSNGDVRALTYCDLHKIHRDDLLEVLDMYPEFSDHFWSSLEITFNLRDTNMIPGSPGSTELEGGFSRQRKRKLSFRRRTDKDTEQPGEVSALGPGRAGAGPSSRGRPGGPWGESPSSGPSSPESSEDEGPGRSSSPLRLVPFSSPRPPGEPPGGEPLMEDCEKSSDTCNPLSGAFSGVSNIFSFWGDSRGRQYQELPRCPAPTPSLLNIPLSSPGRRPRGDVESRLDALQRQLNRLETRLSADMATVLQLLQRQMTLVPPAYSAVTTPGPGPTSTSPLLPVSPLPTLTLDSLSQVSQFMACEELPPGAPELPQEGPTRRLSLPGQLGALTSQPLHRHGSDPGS

SMILES | AC50 [1] | AC50 [2] | AC50 [3] | AC50 (D(1A) dopamine receptor) | AC50 [4] | AC50 [5] | AC50 [6] | AC50 [7] | AC50 [9] | AC50 [10] | AC50 [8]
CC(C)NNC(=O)c1ccncc1 [IPRONIAZID] | > 30 µM | > 30 µM | > 30 µM | > 30 µM | > 30 µM | > 30 µM | > 30 µM | > 30 µM | > 30 µM | – | > 30 µM
CN(CCOc1ccc(NS(C)(=O)=O)cc1)CCc1ccc(NS(C)(=O)=O)cc1 [DOFETILIDE] | > 10 µM | > 30 µM | > 10 µM | > 10 µM | > 30 µM | > 30 µM | > 30 µM | > 30 µM | > 30 µM | > 10 µM | –
O=C(CCCCCCC(=O)Nc1ccccc1)NO [VORINOSTAT] | > 30 µM | > 30 µM | > 30 µM | > 30 µM | > 30 µM | > 30 µM | > 30 µM | > 30 µM | > 30 µM | > 30 µM | –
CCC[C@@H]1C[C@@H](C(=O)N[C@@H]([C@H]2O[C@H](SC)[C@H](O)[C@@H](O)[C@H]2O)[C@H](C)Cl)N(C)C1 [CLINDAMYCIN] | > 10 µM | > 10 µM | > 10 µM | > 10 µM | > 10 µM | > 30 µM | > 30 µM | > 10 µM | > 30 µM | > 10 µM | –
NC(N)=Nc1nc(CSCCC(N)=NS(N)(=O)=O)cs1 [FAMOTIDINE] | > 10 µM | > 10 µM | > 10 µM | > 10 µM | > 10 µM | > 10 µM | > 10 µM | > 10 µM | > 30 µM | 8.1 µM | –

Now from value to compound, other results behind:

AC50 [1] | AC50 [2] | AC50 [3] | AC50 (D(1A) dopamine receptor) | AC50 [4] | AC50 [5] | AC50 [6] | AC50 [7] | AC50 [9] | AC50 [10] | SMILES | AC50 [8]
> 30 µM | > 30 µM | > 30 µM | > 30 µM | > 30 µM | > 30 µM | > 30 µM | > 30 µM | > 30 µM | > 30 µM | COC(=O)N[C@H](C(=O)N1CCC[C@H]1c1nc(-c2ccc(-c3ccc(-c4c[nH]c([C@@H]5CCCN5C(=O)[C@@H](NC(=O)OC)C(C)C)n4)cc3)cc2)c[nH]1)C(C)C | –
> 10 µM | > 10 µM | > 10 µM | > 30 µM | > 10 µM | 11 µM | > 30 µM | > 10 µM | > 10 µM | > 10 µM | COC(=O)C1=C(C)NC(C)=C(C(=O)OCC(C)C)C1c1ccccc1[N+](=O)[O-] (stereo not given) [NISOLDIPINE] | –
> 30 µM | > 30 µM | > 30 µM | > 30 µM | > 30 µM | > 30 µM | > 30 µM | – | > 30 µM | 8.26 µM | CNC(=O)c1cc(Oc2ccc(NC(=O)Nc3ccc(Cl)c(C(F)(F)F)c3)cc2)ccn1 [SORAFENIB] | > 30 µM
